{"source": "patent US20030198662A1", "about": "“Transdermal administration of N-(2,5-disubstituted phenyl)-N'-(3-substituted phenyl)-N'-methyl guanidines” (priority 1999, published 2003)", "assay": "Electrotransport drug flux in automated permeation cells (zero-current passive phase, then electrotransport phase)", "assay_type": "in vitro ADME", "conditions": "aqueous donor solution about 15 mg/mL drug HCl salt, receptor Dulbecco's phosphate buffered saline pH 7.4", "description": "Automated permeation cells used for passive permeation studies were also used for the assessment of electrotransport drug flux. The donor compartment contained the silver anode while the receptor compartment contained the silver chloride cathode. The electrodes were connected to a Maccor power source. An aqueous donor solution containing about 15 mg/mL of the drug HCl salt was utilized. The receptor solution was Dulbecco's phosphate buffered saline ([…]) pH 7.4. The first 16 hours served as a zero current passive phase after which the power source was turned on. The electrotransport phase during which a current of 0.2 mA was supplied (to result in a current density of 0.1 mA/cm^2) lasted 24 hours. Receptor solution was automatically collected every 4 hours during the passive phase and every hour during the electrotransport phase, and analyzed for drug by HPLC. Flux, as μg/cm^2h, was calculated, as was the average steady-state flux, which included data points where delivery had reached a nearly constant value."}
{"smiles": "CSc1cccc(N(C)C(=N)Nc2cc(SC)ccc2Cl)c1", "note": "[CNS 5161, N-(2-chloro-5-(methylthio)phenyl)-N′-(3-(methylthio)phenyl)-N′-methyl guanidine]", "values": [{"measurement": "Average steady-state flux during electrotransport", "setting": "current 0.2 mA, current density 0.1 mA/cm^2, 24 hours", "value": "53±2.5", "unit": "μg/cm^2h"}, {"measurement": "Flux during zero-current passive phase", "setting": "initial 16 hours, zero current", "value": "about 0.02 μg/cm^2h"}]}
